Here are results for 2 molecules from patent US12049638B2, “Synthetic genetic elements for biomanufacture” (Janssen Biotech, Inc., priority 2019, dated 2024).

One data set deals with P600-PEAK-Rapid cells. Kind of data set: AAV production from P600 stable pool after Ad5-CMV-SR21 infection, with 2-aminopurine, ddPCR mCherry assay. The format is cell-based, human. As for the experimental part:
ddPCR quantitation was based on the method described by Lock et al. (2014) Human Gene Therapy methods 23: 115-125. Two 1 of the lysate was DNAse digested in 20 reactions containing 1× PCR buffer+20 mM Tris pH 8.5+8 units DNAse I at 37° C. for 1 hour 96-well plates in a thermocycler. 2 μl of the DNAse digested samples were diluted with 98 Virus Dilution Buffer (VDB) and 2 μl of this dilution was added to ddPCR reactions containing 1× PCR SuperMix+1× PCR Primer/Probe for the mCherry transgene (See Materials section). ddPCR droplets were formed using the Bio-Rad automated droplet maker. PCR cycling was as follows: 95° C. 10 min; 42× (94° C. 30s, 60° C. 1 min, 72° C. 15s all three at cycling time of 2° C. per s); 98° C. 10 min; 4° C. hold. FAM fluorescence was detected on the Bio-Rad droplet reader as per manufacturer's instructions. The clones that produced the highest DNAse-resistant particles as detected as FAM-fluorescence positive droplets were subjected to expansion and further screening.
Construct P600 was transfected into Peak-RAPID cells and a stable pool was generated through selection with 0.5 μg/ml puromycin essentially as described for P439 cells above. Cells were passed 1:10 for 6 weeks prior to assaying AAV production.
2.5E6 P600-PEAK-Rapid p6 cells were plated into three T25 flasks in 5 mls DMEM+10% FBS and incubated for three days at 37° C. The cells density on the day of infection was determined to be 6.6E6 viable cells in one of the flasks where cells were recovered with TrypLE and counted using Trypan blue exclusion. Media in the two remaining flasks were replaced with […] DMEM+2% FBS containing 2.6E8 Ad5-CMV-SR21 virus particles. The flasks were incubated for 24 hours at 32° C. […] One ml of DMEM+2% FBS was added to the other flask, and both flasks were incubated at 32° C. for 7 additional days. Media was recovered from the flasks, centrifuged at 3,000 rpm for 5 minutes to pellet cells and debris. 2 μl of each sample supernatant was subjected to DNAse digestion and ddPCR quantitation using the mCherry assay as described above.

For a further data set, the system named is adenovirus infection. To be noted: cited from earlier work.
The test system of data set [1] is recombinase reporter plasmid (P41) with SR21 attP and attB signals. The experiment in a line: Recombinase reporter assay (Dual Glo firefly/Renilla luciferase) in transfected HEK293 cells. In kind it is cell-based, human. The source says: A vector (P175) (SEQ ID NO:10) was constructed by Gene Synthesis (GENEWIZ, Plainfield, N.J.) to express SR21 recombinase in mammalian cells under control of the CMV promoter and followed by an SV40 polyadenylation signal. The SR21 recombinase open reading frame is the same as SEQ ID NO:3 except that the bacterial translation initiation codon “TTG” is replaced by an “ATG”, and three point-mutations were introduced to destroy restriction endonuclease recognition sites.
A recombinase reporter plasmid (P41) was also constructed by gene synthesis (GENEWIZ, Plainfield, N.J.) (SEQ ID NO:11; FIG. 4). It encodes a constitutively expressed green fluorescent protein (GFP)—self-cleaving F2A—Renilla luciferase (rLUC) fusion protein driven by the EF1α promoter. It also encodes recombinase activated—mCherry-self cleaving P2A-firefly luciferase (fLUC) reporter gene flanked by SR21 attP (SEQ ID NO:7) and attB (SEQ ID NO:9) signals in the antisense orientation relative to the CMV promoter. When SR21 recombinase recombines the attP and attB signals, the coding region is inverted into the sense orientation and the mCherry-P2A-fLUC protein is expressed (See FIG. 4).
To measure SR21 recombinase activity in human cells, 75,000 HEK293 cells were plated into each well of 96-well tissue culture plates in 100 of high-glucose DMEM+10% Fetal Bovine Serum. The recombinase reporter plasmid (P041) the SR21 Recombinase expression plasmid (P175)+[…] (to normalize DNA amounts) were complexed with Fugene-HD transfection reagent in OptiMEM medium for 15 minutes at room temperature as shown in Table 1 and transfected into triplicate wells of the plated cells. Plates were incubated at 37° C. for 48 hours.
Firefly Luciferase (fLUC) and Renilla luciferase (rLUC) was assayed sequentially in transfected wells using the Dual Glo assay kit from Promega. Medium was removed from the transfected wells of the tissue culture plate and 100 μl of a 1:1 mixture of DMEM medium (without phenol red) and the Dual Glo luciferase+fLUC substrate was added. The plate was incubated at room temperature for 10 minutes. The lysate was transferred to an opaque white 96-well plate. fLUC activity was measured using the Envision multilabel reader. Next, 50 μl per well of the Stop-and-Glo buffer+Renilla substrate was added and the plate was incubated with gentle shaking for 10 minutes. The Renilla luciferase signal was read on the same Envision reader.
(Reporter assays use an easily measured gene product as a stand-in for the process of interest.)

Data set [2] relates to Stop Cassette of vector P439 (attP/attB). Kind of data set: Stop Cassette removal by SR21 Recombinase, co-transfection of P439 and P175, PCR and sequencing. In kind it is cell-based, human. To be noted: PEAK-Rapid cells, three days; PCR product sequenced; attL produced. As for the experimental part: Media was removed, cells were washed once with D-PBS and then incubated with TrypLE for 5 minutes at 37° C. Cells were transferred to a sterile microfuge tube, pelleted by centrifugation, washed once with 1 ml D-PBS and pelleted again. Episomal plasmids were recovered by alkaline lysis using the Qiagen Spin Miniprep kit designed for isolating plasmids from bacteria.
To destroy unrecombined plasmid DNA, an aliquot of the recovered DNA was digested with enzyme Spe I-HF in 1× CutSmart Buffer at 37° C. Ihour and 80° C. 20 minutes. The recovered DNA was subjected to PCR amplification with primers P349F3 (SEQ ID NO:32) and P349R9 (SEQ ID NO:33) using NEXT Ultra II Q5 Master Mix with the following cycling conditions: 98° C. 1 min; 35× (98° C. 10s, 72° C. 10s); 5 min 72° C. A single PCR product of the predicted size was observed when subjected to electrophoresis on a 1% agarose gel. The PCR product was purified by size exclusion chromatography using a CHROMA SPIN™+TE-1000 Column. The PCR product was sequenced using the same primers used for PCR (GeneWiz).

In the case of `Nc1ncc2[nH]cnc2n1` [2-AP, 2-aminopurine], the “AAV GC/Cell” value in the data set on P600-PEAK-Rapid cells (DMEM + 2% FBS + 1.25 mM 2-AP added 24 hours post infection, 32° C., 7 additional days, media) is reported as 59,356 ± 11,026 GC/Cell. In addition, the “effect on AAV production” value in the data set on P600-PEAK-Rapid cells (concentrations above 1.25 mM and addition earlier than 24 hours) is given as “inhibitory”. Besides, the “increase in AAV virus production” value in the data set with P600-PEAK-Rapid cells (in the presence of 2-aminopurine versus without, P600 stable pool) is recorded as 2.5 fold. Further, in the data set with adenovirus infection (10 mM 2-AP treatment 1-2 hours post infection), the “cytopathic effect of adenovirus infection” value is reported as “blocked”. Further, the toxicity to cells result in the data set on adenovirus infection (10 mM 2-AP, for at least three days) is recorded as “nontoxic”.

B1: SR21 recombinase: putative serine recombinase from Bacillus safensis strain CCMA-560, SEQ ID NO:2, expressed from plasmid P175 (protein)
chain: MELKHIVNSYNVTKIIGYLRRSRQDVEREKRTGEDTLTEQKELMNKILTGIEIPYETRTEIGSGESIEGRPVFKSCLADLRSGKFQAIAVKEITRLSRGSYSDAGEIVNLLNEKRIIIITPYKIYDPRNPVDARQIRFELFMAREEFEMTRERMNGAKFTYAAQGKWISGLAPFGYKLNKRTSRLEPSDEDKVVVKLIFDIFLNGLDGKDLSYTAIATHLSKLQFTTPRGGKRWSKDTVRKILQNEAYMGRVRYKARETTKDGKKVFRPESEHIVVDDAHEPIINKEDFEAVQEKIKNKVPLLPVVTSYEPNELAGICVCSVCGKSLQKFESEYNRKNKDGTSSYFHVKLLICKINKCTSVRYEYVEEAILEYLEQLIALENNKLKAIIEKSMEAAETNNSEKTSEQMLVQANQKQKELENKLTFIFEKFESGIYTDEMFLQRKAAIEKEVADIKKLKQELSMTFEVKEKDVNEFRVNISDVVKFYKESKSRGLKNEKLRSIFDFIVLEMTEKRRGPIPAKFNIYPVLRIPSVVN
modifications: SR21 Recombinase (WP_029708089.1) Protein Sequence
As for B1, the rLUC in data set [1] (100 ng P41 reporter + 100 ng P175, 48 hours, constitutive Renilla luciferase (transfection efficiency)) is recorded as 3.4E06 ±. Also, the fLUC in data set [1] (100 ng P41 reporter + 100 ng P175 recombinase expression plasmid, 48 hours) is on record as 6.6E06 ±. In data set [1] (reporter + recombinase expression plasmid versus reporter + deoxynucleotides), the “Fold-Increase in fLUC Activity” value is 1535 fold. For the same molecule, the “SR21 recombinase activity in human cells” value in data set [1] (representative of three independent experiments) is on record as “highly active”. In addition, in data set [2], the “removal of STOP cassette from plasmid P439 by recombining attP and attB” value is given as “precisely removed”.
